# Results taken from patent US4837228A, “Antiinflammatory and antimicrobial compounds and compositions” (The University of Mississippi, priority 1982, dated 1989).
# “Also recorded” adds a separate entry of the source. Read-outs that look alike come from different tables or passages of the source.
# Tests used:
# [1] = system: carrageenan-induced rat paw edema; assay: carrageenan-induced rat paw edema test, intraperitoneal dosing; assay type: in vivo; set-up: key to mean difference in volume (MDV): post-injection minus pre-injection mean paw volume; key to group mean difference score: post-injection minus pre-injection paw volume score; settings: for percent increase in paw volume / percent of control / mean difference in volume (MDV): Table 1; for group mean difference score / difference of mean scores versus vehicle control (Duncan's test) / difference of mean scores (Duncan's test): Table 3
# Procedure: Two methods were used to assess the antiinflammatory activity of the compounds of the invention: the carrageenan-induced rat paw edema test and, the erythrocyte membrane stabilization assay.
# In the Rat Paw Edema Test, the rats utilized were divided into test groups of six to eight animals, weighed and marked so that individual rats could be identified; one hour before testing all rats were given a 700 mg/kg intraperitoneal injection of ethyl urethane in distilled water to render them tractable during testing. A circle was drawn, with a felt-tipped marker, around the hind leg of each rat just above the ankle, and each rat was dosed with a test or control compound by intraperitoneal injection. Negative control groups received the vehicle; while positive control groups received a dose of phenylbutazone (PBZ) as shown in Table II. Test compounds were given at doses of 60, 120, 240 and 480 mg/kg. The positive controls were given at 120 mg/kg and 60 mg/kg. Phenylbutazone was prepared for injection by suspending it in normal saline using Tween 60. The rats were then held in group cages for 30 minutes. The volume of the left hind paw was measured using a mercury displacement pleysmograph. The paw is dipped into the mercury until the mercury touches the line above the ankle. Mercury is then withdrawn until the mercury returns to its original level. The amount of mercury removed is measured in milliliters (ml). The mercury can be measured accurately to 0.01 ml. This left hind paw was then injected with 0.1 ml of a 5% w/v solution of viscous carageenan in normal saline. The injection was given between the metatarsal bones using a 27 gauge needle, and the rats then held in group cages for 3 hours. The volume of the left hind paws was measured again in the pleysmograph. The results were computed in the following manner:
# a. A mean is taken for both the pre-injection and post-injection paw volume of each test group.
# b. The mean difference in volume (MDV) for each test group is computed by subtracting the pre-injection means from the post-injection mean.
# c. The percent of control is computed for each test [formula] The percent of control is used to compare the efficacy of the various drug treatments.
# d. The percent increase in paw volume is calculated for each group as: [formula] The percent increase is used to compare the amount of edma observed in one experiment to the amount of edma observed in other experiments.
# The data from the rat paw test were further analyzed using a one-way analysis of varience (ANOVA) and Duncan's New Multiple Range Test. The pre-injection score of each animal was subtracted from his post-injection score and an analysis of the different scores were conducted.
# The procedure described above was followed. […] The vehicle control used was Tween 60, Arlacel and distilled water prepared without CBC(II).
# Bacillus subtilis = assay: MIC, two-fold (broth) serial dilution, B. subtilis; assay type: cell-based; settings: Bacillus subtilis, read-out: MIC
# Method in brief: (§1)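 Qualitative: agar well diffusion. Quantitative: two-fold (broth) serial dilution → MIC. Inoculum = 1 loop-full, 1:10 dilution of 24-h broth culture in sterile water; fungi/M. smegmatis 48–72 h incubation. Controls: streptomycin sulfate (antibacterial), amphotericin B (antifungal).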
# Mycobacterium smegmatis = assay: MIC, two-fold (broth) serial dilution, M. smegmatis; assay type: cell-based; settings: Mycolicibacterium smegmatis, read-out: MIC
# Method in brief: as §1
# [2] = system: Trichophyton mentagrophytes; assay: MIC, two-fold (broth) serial dilution, T. mentagrophytes; assay type: cell-based
# Method in brief: as §1
# [3] = Rattus norvegicus, ip, read-out: inhibition of carrageenan-induced rat paw edema
structure (smiles),measurement,setting,value
"CCCCCc1cc(O)c2c(c1)OC(C)(CCC=C(C)C)C=C2 (centres unmarked) [CBC (I), 2-methyl-2(4'methyl-pent-3'-enyl)-5-hydroxy-7-pentyl chromene]",inhibition at 120 mg/kg,[1]; [3],70%
same,inhibition at 240 mg/kg,[1]; [3],86%
same,inhibition at 480 mg/kg,"[1]; Rattus norvegicus, ip, Table 5, 480 mg/kg i.p.",100%
same,percent increase in paw volume,[1]; 120 mg/kg i.p.,12.729%
same,percent of control,[1]; 120 mg/kg i.p.,30.000%
same,mean difference in volume (MDV),"[1]; 120 mg/kg i.p., paw volume measured in ml",0.139
same,mean difference in volume (MDV),[1]; 240 mg/kg i.p.,0.004
same,percent increase in paw volume,[1]; 240 mg/kg i.p.,0.365%
same,percent of control,[1]; 240 mg/kg i.p.,0.927%
same,mean difference in volume (MDV),[1]; 480 mg/kg i.p.,-0.043
same,percent increase in paw volume,[1]; 480 mg/kg i.p.,-3.708%
same,percent of control,[1]; 480 mg/kg i.p.,-9.189%
same,group mean difference score,[1]; 120 mg/kg,0.139
same,difference of mean scores versus vehicle control (Duncan's test),"[1]; 120 mg/kg, ** p 0.01",0.324
same,group mean difference score,[1]; 240 mg/kg,0.004
same,difference of mean scores versus vehicle control (Duncan's test),"[1]; 240 mg/kg, ** p 0.01",0.458
same,group mean difference score,[1]; 480 mg/kg,0.043
same,difference of mean scores versus vehicle control (Duncan's test),"[1]; 480 mg/kg, ** p 0.01",0.505
same,difference of mean scores (Duncan's test),"[1]; CBC 120 mg/kg versus CBC 240 mg/kg, * p 0.05",0.134
same,difference of mean scores (Duncan's test),"[1]; CBC 120 mg/kg versus CBC 480 mg/kg, ** p 0.01",0.181
same,difference of mean scores (Duncan's test),[1]; CBC 120 mg/kg versus PBZ 120 mg/kg,0.033
same,difference of mean scores (Duncan's test),[1]; CBC 240 mg/kg versus CBC 480 mg/kg,0.047
same,antiinflammatory effect in words,[1]; i.p.,strong antiinflammatory effects
same,"significance of difference (ANOVA, Duncan's test)","[1]; i.p., difference scores, listed as CBC",The 120 mg/kg dose of CBC differed significantly from the 240 and 480 mg/kg doses of CBC; also recorded: the 480 mg/kg dose of CBC differed significantly from the 120 mg/kg dosage of PBZ
same,MIC,Bacillus subtilis; 24 h,0.39 µg/mL
same,MIC,Bacillus subtilis; 48 h,0.78 µg/mL
same,MIC,Mycobacterium smegmatis; 24 h,12.5 µg/mL
same,MIC,Mycobacterium smegmatis; 48 h,25 µg/mL
same,MIC,[2]; 48 hr,25.0 µg/mL
same,MIC,[2]; 72 hr,50.0 µg/mL
same,MIC,"[2]; Trichophyton mentagrophytes, 48 h, read-out: MIC",25 µg/mL
same,MIC,"[2]; Trichophyton mentagrophytes, 72 h, read-out: MIC",50 µg/mL
